Like-named read-outs stand apart in the source and are kept apart here.
What was measured:
[1] = Stability in rat plasma at room temperature; type: in vitro ADME
Description: Tazarotene, tazarotene sulfoxide and tazarotene benzoate were incubated at room temperature with human and rat plasma. The incubation was carried out in duplicate and samples were taken at specific time points for stability analyses (i) rat samples (0 hour, 2 hours and 4 hours) and (ii) human samples (0 hour, 2 hours, 4 hours and 8 hours). Samples were analyzed by LC-MS/MS.

[2] = for k constant: HLM
Description: (§2) Hepatic microsomal reactions were carried out in microcentrifuge tubes in the following manner. Human liver microsomes (0.5 or 1.0 mg/ml protein), Test Article (1 or 10 μM), paraoxon (0, 10 or 100 μM), NADPH regenerating system (10 mM glucose-6-phosphate, 1 unit/ml glucose-6-phosphate dehydrogenase, 1 mM NADP^+), magnesium chloride (5 mM) in 0.1 M potassium phosphate buffer, pH 7.4 were incubated at 37° C. in a shaking water bath. Reactions were initiated with the addition of substrate with the exception of the zero-time incubations. The total reaction volume was 0.2 ml. The reactions were incubated for 15, 30, 45 or 60 minutes, terminated with 0.2 ml ice-cold acetonitrile and then placed on ice. For zero-time incubations, ice cold acetonitrile was added to the mixture containing microsomes, along with NADPH regenerating system, magnesium chloride in phosphate buffer and the Test Article. Each time point was carried out in triplicate.
Disappearance of Test Article and formation of metabolites following in vitro metabolism were determined by LC-MS/MS using multiple reaction monitoring. LightSight® software (Applied Biosystems, Foster City, Calif.) was used to generate the mass spectrometry methods and carry out the data mining.
Control incubations were carried out with the identical incubation procedures as described above with the following exceptions. In negative control reactions, microsomes were not included. […] Duplicate reactions with an initial concentration of 10 μM were incubated for 0 or 30 minutes. Microsomal metabolic stability of 7-ethoxycoumarin was determined by LC-MS/MS.

SkinEthic RHE cultures [3] = assay: H and E staining and immunohistochemistry for K10, K19 and filaggrin in SkinEthic RHE cultures; type: cell-based, human; conditions: 6 μl test article, 72 hours
Description: (§1) SkinEthic RHE cultures were transferred into 6-well plates containing 1.0 mL/well growth media. The cultures were equilibrated at 37° C. and the media was changed daily. The cultures were subsequently placed in 60 mm petri dishes containing 3.5 mL growth media. 6 μl aliquots of the Test Articles shown in Table 3 were applied to duplicate cultures. The cultures were incubated at 37° C. for 72 hours. At the end of the incubation period, the growth media was collected and stored at −20° C. The tissues were cut in half and one half was placed in 10% NBF for histology, while the other half was placed in RNAlater™ solution (Ambion). The following analyses were performed: a) IL-1α and IL-8 activity assay; b) Hand E staining; c) Immunohistochemistry for K10, K19 and filaggrin; and d) qRT-PCR to quantitate K10, K19 and filaggrin expression.

SkinEthic RHE cultures [4] = assay: qRT-PCR of K10, K19 and filaggrin expression in SkinEthic RHE cultures; type: cell-based, human; conditions: 6 μl test article, 72 hours
Description: as §1

A431 cells = assay: PMA-induced IL-6 release from A431 cultures; type: cell-based, human; conditions: PMA 10 ng/mL; retinoids 0.01 to 1 μg/mL; 48 hours
Description: A431 cells were purchased from ATCC(CRL-1555). Cells were seeded onto 12-well plates at a density of 250,000 cells/well and incubated for 72 hours at 37° C./5% CO2 to allow cells to grow to confluency. Phorbol-12-myristate 13-acetate (PMA), diluted in DMSO (10 mg/mL stock), was added in a concentration of 10 ng/mL and retinoids were added in concentrations of 0.01 to 1 μg/mL from a 10 mg/mL stock solution in DMSO. Cultures were incubated for 48 hours at 37° C. At the end of the incubation period, growth media was collected and cell viability was determined using a CellTiterGlo assay kit (Promega). Concentrations of IL-6 were determined by ELISA and normalized based on cell viability.
It is known that PMA up regulates IL-6 expression through transactivation of the nuclear transcription factor, AP-1. Retinoids, such as tretinoin, are known to inhibit transactivation of AP-1 via retinoic acid receptors.

[5] = Reaction with benzoyl peroxide (BPO) in solution; type: physicochemical; conditions: at all three temperatures (35° C., room temperature, 5° C.); BPO 50-fold excess by weight
Description: The reaction of (i) tazarotene, tazarotene benzoate, hydroxy tazarotenic acid and tazarotene nicotinate with (ii) benzoyl peroxide (BPO) in 30% aqueous solutions was monitored at 35° C., room temperature and 5° C.
Individual solutions of each compound were prepared at approximately 0.25 mg/mL in acetonitrile:water (6:4 by volume). Reactions were initiated by mixing equal volumes of the test solution with an approximately 12 mg/mL solution of benzoyl peroxide (BPO) in acetonitrile:water (4:1 by volume). Therefore, the reaction solution contained approximately 0.125 mg/mL of the test compound and the BPO was at a 50-fold excess by weight (i.e. at the same ratio as a product containing 0.1% tazarotene and 5% BPO). Aliquots of the reaction solutions were stored at various temperatures protected from light.
Reactions were quenched by diluting 30 μL of the reaction solution to 50 mL with a diluent (acetonitrile:water in a ratio of 1:1 by volume) and storing the sample at 10° C. in the LC/MS sample tray or at 5° C. for storage. Duplicate samples were prepared at each time point (three at the start of the reaction) and the results were averaged together to generate a single value.
Samples were analyzed on a Waters Acquity UPLC with a Waters Xevo TQMS using an ESI source in the positive mode controlled by MassLynx V4.1 software. […]

in vitro = conditions: human, human skin microsomes, pH 7.4
Description: as §2
(§3) Five time points were chosen, but because of the limitation of human skin microsome supply, each one was carried out in duplicate. Skin microsomal reactions were carried out as described above for hepatic microsomal reactions with the following two exceptions. Firstly, the total reaction volume was 0.1 mL. Secondly, incubations were terminated with 0.1 mL acetonitrile.

[6] = Metabolism in the presence of human skin microsomes; conditions: for Half-life / k constant: HSkM
Description: as §2, §3

[7] = 1 μM initial concentration, Complete (with NADPH), 0 min
[8] = 1 μM initial concentration, Complete (with NADPH), 15 min
[9] = 1 μM initial concentration, Complete (with NADPH), 30 min
[10] = 1 μM initial concentration, Complete (with NADPH), 45 min
[11] = 1 μM initial concentration, Complete (with NADPH), 60 min
[12] = 1 μM initial concentration, Without NADPH, 0 min
[13] = 1 μM initial concentration, Without NADPH, 15 min
[14] = 1 μM initial concentration, Without NADPH, 30 min
[15] = 1 μM initial concentration, Without NADPH, 45 min
[16] = 1 μM initial concentration, Without NADPH, 60 min
[17] = 10 μM initial concentration, Complete (with NADPH), 0 min
[18] = 10 μM initial concentration, Complete (with NADPH), 15 min
[19] = 10 μM initial concentration, Complete (with NADPH), 30 min
[20] = 10 μM initial concentration, Complete (with NADPH), 45 min
[21] = 10 μM initial concentration, Complete (with NADPH), 60 min
[22] = 10 μM initial concentration, Without NADPH, 0 min
[23] = 10 μM initial concentration, Without NADPH, 15 min
[24] = 10 μM initial concentration, Without NADPH, 30 min
[25] = 10 μM initial concentration, Without NADPH, 45 min
[26] = 10 μM initial concentration, Without NADPH, 60 min

CCOC(=O)c1ccc(C#Cc2ccc3c(c2)C(C)(C)CCS3)nc1 [Tazarotene, ethyl 6-[2-(4,4-dimethylthiochroman-6-yl)-ethynyl nicotinate]
concentration in rat plasma ([1]; 0 hour): 16.4 ng/mL | concentration in rat plasma ([1]; 2 hours): <LOD | concentration in rat plasma ([1]; 4 hours): <LOD | Test Article remaining, percent of initial concentration [2, 7]: 100% | Test Article remaining, percent of initial concentration [2, 8]: 21.1% | Test Article remaining, percent of initial concentration [2, 9]: 4.91% | Test Article remaining, percent of initial concentration [2, 10]: 1.80% | Test Article remaining, percent of initial concentration [2, 11]: 0.70% | Test Article remaining, percent of initial concentration [2, 12]: 100% | Test Article remaining, percent of initial concentration [2, 13]: 22.0% | Test Article remaining, percent of initial concentration [2, 14]: 4.86% | Test Article remaining, percent of initial concentration [2, 15]: 1.43% | Test Article remaining, percent of initial concentration [2, 16]: 0.65% | Test Article remaining, percent of initial concentration [2, 17]: 100% | Test Article remaining, percent of initial concentration [2, 18]: 24.1% | Test Article remaining, percent of initial concentration [2, 19]: 6.55% | Test Article remaining, percent of initial concentration [2, 20]: 2.18% | Test Article remaining, percent of initial concentration [2, 21]: 0.89% | Test Article remaining, percent of initial concentration [2, 22]: 100% | Test Article remaining, percent of initial concentration [2, 23]: 21.9% | Test Article remaining, percent of initial concentration [2, 24]: 4.64% | Test Article remaining, percent of initial concentration [2, 25]: 1.48% | Test Article remaining, percent of initial concentration [2, 26]: 0.55% | k constant ([2]; 1 μM, Complete): −0.0880 | k constant ([2]; 1 μM, Without NADPH): −0.0899 | k constant ([2]; 10 μM, Complete): −0.0827 | k constant ([2]; 10 μM, Without NADPH): −0.0914

CCOC(=O)c1ccc(C#Cc2ccc3c(c2)C(C)(C)CC(OC(=O)c2ccccc2)S3)nc1 (stereo not drawn) [Compound 4, 6-(2-(2-benzoyloxy-4,4-dimethylthiochroman-6-yl)ethynyl)nicotinic acid, ethyl ester]
filaggrin by immunohistochemistry (SkinEthic RHE cultures [3]): down regulated | down regulation of K10 gene expression compared to untreated and vehicle controls (SkinEthic RHE cultures [4]): uninterpretable | down regulation of filaggrin gene expression compared to untreated and vehicle controls (SkinEthic RHE cultures [4]): equivocal | PMA-induced IL-6 release (A431 cells): significantly decreased | concentration in rat plasma ([1]; 0 hour): 59.8 ng/mL | concentration in rat plasma ([1]; 2 hours): 15.0 ng/mL | concentration in rat plasma ([1]; 4 hours): 2.29 ng/mL | less reactive with BPO than tazarotene and hydroxy tazarotenic acid [5]: ~25 times | Test Article remaining, percent of initial concentration [2, 7]: 100% | Test Article remaining, percent of initial concentration [2, 8]: 20.3% | Test Article remaining, percent of initial concentration [2, 9]: 4.45% | Test Article remaining, percent of initial concentration [2, 10]: 1.47% | Test Article remaining, percent of initial concentration [2, 11]: 0.73% | Test Article remaining, percent of initial concentration [2, 12]: 100% | Test Article remaining, percent of initial concentration [2, 13]: 17.3% | Test Article remaining, percent of initial concentration [2, 14]: 2.97% | Test Article remaining, percent of initial concentration [2, 15]: 1.07% | Test Article remaining, percent of initial concentration [2, 16]: 0.53% | Test Article remaining, percent of initial concentration [2, 17]: 100% | Test Article remaining, percent of initial concentration [2, 18]: 99.3% | Test Article remaining, percent of initial concentration [2, 19]: 73.4% | Test Article remaining, percent of initial concentration [2, 20]: 63.2% | Test Article remaining, percent of initial concentration [2, 21]: 55.2% | Test Article remaining, percent of initial concentration [2, 22]: 100% | Test Article remaining, percent of initial concentration [2, 23]: 87.0% | Test Article remaining, percent of initial concentration [2, 24]: 64.0% | Test Article remaining, percent of initial concentration [2, 25]: 51.0% | Test Article remaining, percent of initial concentration [2, 26]: 41.0% | k constant ([2]; 1 μM, Complete): −0.0893 | k constant ([2]; 1 μM, Without NADPH): −0.0964 | k constant ([2]; 10 μM, Complete): −0.0097 | k constant ([2]; 10 μM, Without NADPH): −0.0146 | half-life at 10 µM (in vitro): 6.8 h | rate of metabolism by human skin microsomes relative to human liver microsomes [6]: slower rate | Half-life ([6]; 1 μM, Complete): 8.25 h | k constant ([6]; 1 μM, Complete): −0.0014 | Half-life ([6]; 1 μM, Without NADPH): 3.62 h | k constant ([6]; 1 μM, Without NADPH): −0.0032 | k constant ([6]; 10 μM, Complete): −0.0017 | Half-life ([6]; 10 μM, without NADPH): 7.7 h | k constant ([6]; 10 μM, without NADPH): −0.0015 | metabolized ([6]; after 150 min, 2 mg/ml human skin microsomes): 20%

— patent US9062037B2, “Tazarotene derivatives” (Stiefel Laboratories, Inc., priority 2009, dated 2015)
